Results on four molecules are retold here after ChEMBL document CHEMBL1157961, “Nitrogen-containing phorbol esters from Croton ciliatoglandulifer and their effects on cyclooxygenases-1 and -2” (J Nat Prod, 2006).

Molecules are shown by their SMILES.

For test [1], the target named is T1, Prostaglandin G/H synthase 1 (Ovis aries, UniProt P05979).
T1 sequence (P05979 whole entry): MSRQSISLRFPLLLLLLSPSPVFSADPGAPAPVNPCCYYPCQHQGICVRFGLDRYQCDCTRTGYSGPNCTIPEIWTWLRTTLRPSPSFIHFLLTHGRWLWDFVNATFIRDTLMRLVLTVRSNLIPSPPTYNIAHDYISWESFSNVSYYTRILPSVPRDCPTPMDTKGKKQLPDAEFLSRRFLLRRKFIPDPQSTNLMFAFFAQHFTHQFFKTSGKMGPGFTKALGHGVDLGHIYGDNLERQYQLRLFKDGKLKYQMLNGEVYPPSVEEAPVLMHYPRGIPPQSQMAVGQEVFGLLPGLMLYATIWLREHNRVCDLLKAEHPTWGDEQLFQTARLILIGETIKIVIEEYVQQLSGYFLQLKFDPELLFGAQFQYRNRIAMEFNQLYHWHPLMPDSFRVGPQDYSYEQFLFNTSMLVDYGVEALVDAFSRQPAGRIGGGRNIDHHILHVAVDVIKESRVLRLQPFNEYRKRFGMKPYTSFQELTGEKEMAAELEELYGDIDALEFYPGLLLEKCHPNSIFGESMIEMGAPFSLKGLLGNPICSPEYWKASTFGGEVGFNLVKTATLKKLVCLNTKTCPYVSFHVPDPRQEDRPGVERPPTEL
In words: Inhibition of ovine COX1.

The target of test [2] is T2, Prostaglandin G/H synthase 2 (Homo sapiens, UniProt P35354).
T2 sequence (P35354 whole entry): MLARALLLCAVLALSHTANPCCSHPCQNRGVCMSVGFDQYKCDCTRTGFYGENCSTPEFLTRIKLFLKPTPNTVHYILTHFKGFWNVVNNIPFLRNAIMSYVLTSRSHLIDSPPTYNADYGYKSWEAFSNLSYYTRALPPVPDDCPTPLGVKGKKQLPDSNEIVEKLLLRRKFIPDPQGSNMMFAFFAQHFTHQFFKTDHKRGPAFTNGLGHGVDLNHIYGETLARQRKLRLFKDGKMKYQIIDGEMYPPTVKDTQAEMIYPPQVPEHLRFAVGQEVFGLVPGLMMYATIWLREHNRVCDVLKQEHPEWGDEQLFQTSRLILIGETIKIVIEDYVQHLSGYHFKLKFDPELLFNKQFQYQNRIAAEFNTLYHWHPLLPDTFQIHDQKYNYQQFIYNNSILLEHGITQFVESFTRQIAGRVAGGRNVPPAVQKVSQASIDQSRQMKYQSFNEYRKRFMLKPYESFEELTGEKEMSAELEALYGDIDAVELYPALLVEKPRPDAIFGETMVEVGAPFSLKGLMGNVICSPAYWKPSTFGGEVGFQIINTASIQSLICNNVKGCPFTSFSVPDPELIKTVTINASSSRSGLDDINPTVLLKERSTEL
In words: Inhibition of human recombinant COX2.

Turning to `CC(=O)O[C@@]12[C@H](OC(=O)[C@@H](C(C)C)N(C)C)[C@@H](C)[C@]3(O)[C@@H]4C=C(C)C(=O)[C@@H]4CC(CO)=C[C@H]3[C@@H]1C2(C)C`, the IC50 was found to be 1 nM in test [1] and 2200 nM in test [2]. For `CC(=O)O[C@@]12[C@H](OC(=O)[C@@H](C(C)C)N(C)C)[C@@H](C)[C@@]3(O)[C@@H](C=C(CO)C[C@@]4(O)C(=O)C(C)=C[C@@H]34)[C@@H]1C2(C)C`, the IC50 in test [1] was 1 nM; in test [2], 2200 nM. For the molecule `CC(=O)O[C@@]12[C@H](OC(=O)C(=C(C)C)N(C)C)[C@@H](C)[C@]3(O)[C@@H]4C=C(C)C(=O)[C@@H]4CC(CO)=C[C@H]3[C@@H]1C2(C)C`, in test [2], the concentration for half-maximal inhibition (IC50) was greater than 100000 nM.

On to `CC(=O)O[C@@]12[C@H](OC(=O)[C@H](C(C)C)N(C)C)[C@@H](C)[C@]3(O)[C@@H]4C=C(C)C(=O)[C@@H]4CC(CO)=C[C@H]3[C@@H]1C2(C)C`, for which the IC50 in test [1] and in test [2] was greater than 100000 nM each time.
